This is an account of results in US9212209B2, “Screening methods for spinal muscular atrophy” (Indiana University Research and Technology Corporation, priority 2012, dated 2015).

Where two headings read alike, the source gives them in different places.

This experiment has as its system SMN2-luciferase reporter. As to the kind of experiment: SMN2-luciferase reporter assay (clonal HEK-293 SMN2-luc cells). The experiment is classed as cell-based, human. The conditions noted are these: Table 6; for EC50: read-out: Ec50; for Emax: read-out: Max % Activity. The procedure:
The reporter cell lines were plated at 50,000 cells per well in 96-well plates and incubated overnight. Compounds were added to each well and incubated at 37° C. overnight. The final DMSO concentration was 0.1%. Luciferase activity was assayed using either STEADYGLO (PROMEGA E2510) or DUALGLO (PROMEGA E2920) luciferase using the WALLAC ENVISION multilabel reader. For detailed assay conditions see Table 2A. All data points were transformed from CPS to percent increase over basal expression in the treated control wells (DMSO or H2O as appropriate).
Plates were sealed with porous paper tape and incubated for 24 hours. […] For comparison, data points were transformed from CPS to percent activation over basal expression in the DMSO treated control wells.
For comparison, all data points are expressed as percent increase over basal luciferase expression in the control cells.

Setting [1] is: Homo sapiens, HEK293, reporter assay.

With `O=C(Nc1ccc(F)c(Cl)c1)c1cc(C2CCCC2)on1` [LDN-211828], under setting [1], the EC50 was found to be 20000 nM and the Emax was 100%. Further, where the note is “reporter assay”, the Active entry is given as “Yes”. Take `O=C(Nc1ccc(F)c(Cl)c1)c1cc(C2CCCCC2)on1` [LDN-211829]: the Active result (reporter assay) is “No/Weak”. As to `CC(C)c1cc(C(=O)Nc2ccc(F)c(Cl)c2)n[nH]1` [LDN-211830], the Active result (reporter assay) was “No”. With `CC(C)(C)c1cc(NC(=O)c2ccc(F)c(Cl)c2)no1` [LDN-211831], under setting [1], the EC50 came to 3000 nM and the Emax is 150%. Moreover, the Active entry (reporter assay) was “Yes”. Take `CC(C)c1cc(NC(=O)Cc2ccc(F)c(Cl)c2)no1` [LDN-211832]: the Active entry (reporter assay) is “No”. As to `CC(C)c1cc(C(=O)NCc2ccc(F)c(Cl)c2)no1` [LDN-211834], under “reporter assay”, the Active result is “No”.

As to `CC(C)(C)c1cc(NC(=O)c2ccc3ccccc3c2)no1` [LDN-211854], under setting [1], the EC50 came to 500 nM and the Emax turned out to be 200%. Moreover, the Active entry (reporter assay) is listed as “Yes”. In the same order, the values of `O=C(Nc1ccc(F)c(Cl)c1)c1cc(Cc2ccccc2)on1` [LDN-211855] are 1500 nM, 125% and “Yes”. `CC(C)c1cc(C(=O)Nc2ccc(F)c(Cl)c2)nn1C` [LDN-211856]: where the note is “reporter assay”, the Active result is reported as “No”.

Regarding `CC(C)c1cc(C(=O)Nc2ccc(F)c(Cl)c2)n(C)n1` [LDN-211857], under “reporter assay”, the Active entry was “No”.

Regarding `CC(C)(C)c1cc(C(=O)Nc2ccc(F)c(Cl)c2)no1` [LDN-211858], the Active entry (reporter assay) is recorded as “No”. Take `CC(C)(C)c1cc(NS(=O)(=O)c2ccc3ccccc3c2)no1` [LDN-211859]: the Active entry (reporter assay) is listed as “No”. As for `CC(C)c1cc(NC(=O)c2ccc(F)c(Cl)c2)on1` [LDN-211860], under setting [1], the EC50 is 2500 nM and the Emax was 125%. Moreover, the Active entry (reporter assay) is listed as “Yes”.

For `CC(C)(C)c1cc(NC(=O)c2ccc(F)c(Cl)c2)on1` [LDN-211861], under setting [1], the concentration for a half-maximal effect (EC50) was found to be 3700 nM and the Emax worked out at 100%. The Active entry (reporter assay) is “Yes”. `CC(C)C1CC(C(=O)Nc2ccc(F)c(Cl)c2)=NO1` (stereo not drawn) [LDN-211862]: the Active entry (reporter assay) was “Nonspecific”. `CC(C)(C)c1cc(NC(=O)c2cnc3ccccc3c2)no1` [LDN-211906]: under setting [1], the EC50 was determined as 800 nM and the Emax amounted to 250%. Besides, the Active entry (reporter assay) is on record as “Yes”. Take `CC(C)(C)c1cc(NC(=O)c2cnc3ccccc3n2)no1` [LDN-211907]: under “reporter assay”, the Active result is “No/Weak”. On the same count and under the same terms, as for `CC(C)(C)c1cc(NC(=O)c2ccc3ccccc3n2)no1` [LDN-211908], the entry is “No/Weak”; as for `CC(C)(C)c1cc(NC(=O)c2cc3ccccc3o2)no1` [LDN-211909], “No/Weak”.

Turning to `Cn1c(C(=O)Nc2cc(C(C)(C)C)on2)cc2ccccc21` [LDN-211910], under setting [1], the EC50 worked out at 700 nM and the Emax amounted to 100%. The Active entry (reporter assay) is reported as “Yes”. In the same order, the values of `CC(C)(C)c1cc(NC(=O)c2cc3ccccc3[nH]2)no1` [LDN-211911] are 400 nM, 175% and “Yes”. Consider `Cc1ccc(C(=O)Nc2cc(C(C)(C)C)on2)cc1C` [LDN-211912], for which, under setting [1], the half-maximal effective concentration (EC50) amounted to 1100 nM and the Emax amounted to 150%. Also, the Active result (reporter assay) is “Yes”. For `CC(C)(C)c1nnc(NC(=O)c2ccc(F)c(Cl)c2)s1` [LDN-211981], under setting [1], the concentration for a half-maximal effect (EC50) came to 5900 nM and the Emax was 100%. Also, the Active entry (reporter assay) is reported as “Yes”. As for `O=C(Nc1nnc(-c2ccccc2)s1)c1ccc(F)c(Cl)c1` [LDN-211982], the Active entry (reporter assay) is reported as “No”. Same read-out and setting: as for `O=C(Nc1nc(-c2ccccc2)cs1)c1ccc(F)c(Cl)c1` [LDN-211983], the entry is “No”. As for `Cc1csc(NC(=O)c2ccc(F)c(Cl)c2)n1` [LDN-211984], under setting [1], the concentration for a half-maximal effect (EC50) was 2100 nM and the Emax stood at 200%. For the same compound, the Active result (reporter assay) was “Yes”. Consider `Cc1cnc(NC(=O)c2ccc(F)c(Cl)c2)s1` [LDN-211985], for which, under setting [1], the EC50 was determined as 800 nM and the Emax is 150%. The Active entry (reporter assay) is “Yes”. In the same order, the values of `CC(C)c1nc(C(=O)Nc2ccc(F)c(Cl)c2)cs1` [LDN-211986] are 1500 nM, 100% and “Yes”. Take `CC(C)(C)c1coc(NC(=O)c2ccc(F)c(Cl)c2)n1` [LDN-211992]: under setting [1], the concentration giving a half-maximal response (EC50) is 150 nM and the Emax was found to be 100%. In addition, the Active entry (reporter assay) was “Yes”. For `O=C(Nc1nc(-c2ccccc2)co1)c1ccc(F)c(Cl)c1` [LDN-212011], the Active result (reporter assay) is listed as “No”.

With `CC(C)(C)c1c[nH]c(NC(=O)c2ccc(F)c(Cl)c2)n1` [LDN-212012], the Active entry (reporter assay) is recorded as “No”. As to `O=C(Nc1nc(C2CCC2)cs1)c1ccc(F)c(Cl)c1` [LDN-212013], under setting [1], the EC50 came to 500 nM and the Emax came out at 100%. Moreover, where the note is “reporter assay”, the Active result is recorded as “Yes”. In the same order, the values of `CC(C)c1nc(C(=O)Nc2ccc(F)c(Cl)c2)co1` [LDN-212015] are 1700 nM, 100% and “Yes”. Turning to `CC(C)(C)c1cc(=O)[nH]c(NC(=O)c2ccc(F)c(Cl)c2)n1` [LDN-212026], under “reporter assay”, the Active entry was “No”. For the compound `CC(C)(O)c1cnc(NC(=O)c2ccc(F)c(Cl)c2)s1` [LDN-212255], under setting [1], the half-maximal effective concentration (EC50) is 400 nM and the Emax stood at 117%. Also, the Active result (reporter assay) is listed as “Yes”. In the same order, the values of `O=C(Nc1cc(C2(O)CCC2)ccn1)c1ccc(F)c(Cl)c1` [LDN-212256] are 400 nM, 114% and “Yes”. For `COc1cc2c(c(OC)c1OC)C(c1cc(Br)ccc1F)CC(=O)N2C` (stereo not drawn) [LDN-212263], the Active result (reporter assay) is listed as “No”. The same measure, in the same setting: as for `COc1cc2c(c(OC)c1)C(c1cc(Br)ccc1F)CC(=O)N2` (stereo not drawn) [LDN-212264], the entry is “No”.

For `COc1cc2[nH]c(=O)cc(-c3cc(Br)ccc3F)c2c(OC)c1OC` [LDN-212265], the Active entry (reporter assay) is “No”. With `COc1cc2c(c(OC)c1OC)C(c1ccc(Cl)c(Cl)c1)CC(=O)N2` (stereo not drawn) [LDN-212266], the Active entry (reporter assay) was “No/Weak”. As to `COc1cc2c(c(OC)c1OC)C(c1cccc(-c3ccccc3)c1)CC(=O)N2` (stereo not drawn) [LDN-212267], under “reporter assay”, the Active entry is “No”.

Consider `C=C1CC(c2cccc3ccccc23)c2c(cc(OC)c(OC)c2OC)N1` (stereo not drawn) [LDN-212350], for which, under “reporter assay”, the Active entry is “No/Weak”. Still for that read-out and setting: the same measure for `O=C1CC(c2cc(Br)ccc2F)c2c(ccc3ccccc23)N1` (stereo not drawn) [LDN-212352]: “No”. For `COc1cc2c(c(OC)c1OC)C(c1cc(F)ccc1F)CC(=O)N2` (stereo not drawn) [LDN-212353], the Active result (reporter assay) is reported as “No/Weak”.

Turning to `COC1=CC2NC(=O)CC(c3cc([N+](=O)[O-])ccc3F)C2C(OC)=C1OC` (stereo not drawn) [LDN-212354], under “reporter assay”, the Active result was “No/Weak”. Same read-out and setting: as for `COc1cc2c(c(OC)c1OC)C(c1cccc3ccccc13)CC(=O)N2` (stereo not drawn) [LDN-212355], the entry is “No/Weak”.

As to `COc1cc2c(c(OC)c1OC)C(c1cccc3ccccc13)CC(=O)N2` (stereo not drawn) [LDN-212356], under setting [1], the EC50 was 43000 nM and the Emax was found to be 150%. Under “reporter assay”, the Active result was “Yes”.

`COc1cc2c(c(OC)c1OC)C(c1ccc3ccccc3c1)CC(=O)N2` (stereo not drawn) [LDN-212357]: the Active entry (reporter assay) is given as “No”.

With `COC1=CC2NC(=O)CC(c3cc(C(N)O)ccc3F)C2C(OC)=C1OC` (stereo not drawn) [LDN-212358], the Active entry (reporter assay) is “No”. Consider `COC1=C2C(=CC(OC)C1OC)NC(=O)CC2c1cc(NC(=O)c2ccccc2)ccc1F` (stereo not drawn) [LDN-212359], for which the Active result (reporter assay) is listed as “No”. `COC1=CC2NC(=O)CC(c3cc(NC(C)=O)ccc3F)C2C(OC)=C1OC` (stereo not drawn) [LDN-212360]: the Active result (reporter assay) is “No”. Same read-out and setting: the same measure for `COc1cc2c(c(OC)c1OC)C(c1cc(C=N)ccc1F)CC(=O)N2` (stereo not drawn) [LDN-212361]: “No”; for `CCOC(=O)C1C(=O)Nc2cc(OC)c(OC)c(OC)c2C1c1cc(Cl)ccc1F` (stereo not drawn) [LDN-212388]: “No”; for `COc1cc2c(c(OC)c1OC)C(c1coc3ccccc13)CC(=O)N2` (stereo not drawn) [LDN-212389]: “No/Weak”. Same read-out and setting: the same measure for `COc1cc2c(c(OC)c1OC)C(c1cccnc1Cl)CC(=O)N2` (stereo not drawn) [LDN-212390]: “No”; for `COc1cc2c(c(OC)c1OC)C(c1ccc(Cl)cn1)CC(=O)N2` (stereo not drawn) [LDN-212392]: “No”. On the same count and under the same terms, as for `COc1cc2c(c(OC)c1OC)C(c1ccnc(Cl)c1)CC(=O)N2` (stereo not drawn) [LDN-212393], the entry is “No/Weak”; as for `CC(C)(O)c1sc(NC(=O)C2CCC(F)C(Cl)C2)nc1C(F)(F)F` (stereo not drawn) [LDN-213766], “No”. As to `COc1cc2c(c(OC)c1OC)C(c1cc(Cl)ccc1F)NC(=O)N2` (stereo not drawn) [LDN-213767], under “reporter assay”, the Active entry was “Yes”, the “Max % Activity” value came to 125% and the EC50 turned out to be 8400 nM.

Regarding `COc1cc2c(c(OC)c1OC)C(c1cc(Cl)ccc1F)OC(=O)N2` (stereo not drawn) [LDN-213768], under setting [1], the half-maximal effective concentration (EC50) stood at 5900 nM and the Emax turned out to be 150%. Also, the Active entry (reporter assay) is “Yes”.

For the compound `COc1cc2c(c(OC)c1OC)C(c1cc(Cl)ccc1F)CC(=O)N2` (stereo not drawn) [LDN-213769], the Active result (reporter assay) is listed as “No”. Still for that read-out and setting: the same measure for `COc1cc2c(c(OC)c1OCCN1CCOCC1)C(c1cc(Cl)ccc1F)CC(=O)N2` (stereo not drawn) [LDN-213770]: “No”; for `COc1cc2c(c(OC)c1OCCO)C(c1cc(Cl)ccc1F)CC(=O)N2` (stereo not drawn) [LDN-213771]: “No”; for `COCCOc1c(OC)cc2c(c1OC)C(c1cc(Cl)ccc1F)CC(=O)N2` (stereo not drawn) [LDN-213772]: “No”.
